Assays:
[1] = Comparative toxicity study (LD0, LD50) and therapeutic index; details: mouse, in vivo
Text: (§1) In the study of the cytostatic action, 6-mercaptopurine was taken as the comparative anti-neoplastic drug.

[2] = system: mouse; experiment: as above; details: for LD0 (zero lethal dose or maximal permissible dose): LD0 expressed in mg/mouse; for LD50: LD50 expressed in mg/mouse
Text: as §1

[3] = system: He-La cells and KB cells; experiment: Cytostatic action on He-La cells and on KB cells, 6-mercaptopurine as comparative drug (Table 1); type: cell-based, human; set-up: unit not given beside the values; details: calculated using 6-mercaptopurine as the comparative drug (6-mercaptopurine = 1)
Text: as §1

[4] = system: HeLa cells; experiment: Cytotoxic activity on HeLa cells, comparison with corresponding 4-nitronaphthalimides; type: cell-based, human; details: relative; ID50 of 6-mercaptopurine is assigned the value "1"; 37° C., 72 hours; Lowry protein
Procedure: A series of tests has been carried out comparing the compounds of our invention with the corresponding 4-nitronaphthalimides, with respect to their cytotoxic activity on HeLa cells. The cytotoxic activity test was carried out in accordance with the procedure set forth in "R. I. Heral. Cancer Chemotherapy Report part III, Vol. III, No. 2".
HeLa cells are human cancer cells commonly used for investigating the cytotoxic activity of compounds. These HeLa cells are cultured by the single layer tissue culture technique on glass slides in the laboratories of the Spanish company, Laboratories Made, S.A., of Madrid, Spain, the assignee of this application.
In the tests, there was used an initial culture containing approximately 125000 HeLa cells per milliliter. The initial culture was dispersed with trypsin and was stirred to maintain the cells in suspension therein. Portions of equal volume of the suspension were placed in separate test tubes and to the test tubes were added the various compounds set forth below in various concentrations. There was employed as a standard for comparison, the compound 6-mercaptopurine, a known anti-neoplastic agent whose cytotoxic activity on HeLa cells is well known. As a control, there were also employed test tubes containing the suspension and to which no compound was added.
The contents of the test tubes were cultured at 37° C. for 72 hours. Then the contents of the various test tubes were examined by optical microscope to determine the approximate proportion of cells whose cellular growth was inhibited. Then, the protein content of each tube was determined by the Lowry method, as modified by Oyama and Eagle (Proc. Soc. Exptl. Biol. Med. 91, 305 (1956), and these values are compared with the corresponding values obtained in the control test tubes wherein no compound was added. Comparison of these measured protein values provides a further determination of the inhibition of cell growth caused by the test compounds. With the data obtained from the test tubes containing the same compound in various concentrations, a graph was prepared of concentration of compound versus inhibition of growth of HeLa cells. From this, there can be obtained the so-called ID50 value, that is, the dose of the compound that inhibits HeLa cellular growth by 50%. This is then compared with the results for the comparison compound 6-mercaptopurine. For purposes of comparison, the ID50 value of 6-mercaptopurine is assigned the value "1".

[5] = system: Swiss I.C.R. albino mice; experiment: Raticide/muricide action, drugs mixed with mice food for 7 days, Warfarin as comparative substance; type: in vivo, mouse (Swiss I.C.R. albino); details: for Dose to be taken in seven days: mixed with usual mice food at 1%, 0.5% and 0.1%, 7 days, oral; for Raticide and muricide action compared with Warfarin / Toxicity compared with Warfarin: in words
Procedure: The four drugs were given to Swiss I.C.R. albino mice during 7 days. The administration was done by mixing the drugs with the usual mice food at concentrations of 1%, 0.5% and 0.1%. Two cribs were put in each cage: one with the usual mice food and the other containing food to which our drugs were added at the above mentioned concentrations. The food of both cribs was weighed daily in order to see if the animals could distinguish it. Warfarin (3-(α-acetonylbenzyl)-4-hydroxycoumarin) was used as the comparative substance.

| SMILES | selectivity ratio [1] | LD0 (zero lethal dose or maximal permissible dose) [2] [mg/mouse] | LD50 [2] [mg/mouse] | ID50 (50% inhibitory dose) [3] | ID50 (dose that inhibits HeLa cellular growth by 50%) [4] | Dose to be taken in seven days [5] [mg/kg] | Raticide and muricide action compared with Warfarin [5] | Toxicity compared with Warfarin [5] |
| --- | --- | --- | --- | --- | --- | --- | --- | --- |
| Sc1ncnc2nc[nH]c12 [6-mercaptopurine, reference compound] | 5 | 1 | 5 | – | – | – | – | – |
| O=C1c2cccc3cc([N+](=O)[O-])cc(c23)C(=O)N1CCN1CCCCC1 [Compound 1, N-[2-(N-piperidino)ethyl]-3-nitronaphthalimide] | – | 0.5 | 2 | 2 | 2 | 80 | – | – |
| CCN(CC)CCN1C(=O)c2cccc3cc([N+](=O)[O-])cc(c23)C1=O [Compound 2, N-(2-diethylaminoethyl)-3-nitronaphthalimide] | – | 0.15 | 2 | 3 | 3 | 13 | great superiority over Warfarin as raticide and muricide agents | more toxic |
| CN(C)CCN1C(=O)c2cccc3cc([N+](=O)[O-])cc(c23)C1=O [Compound 3, N-(2-dimethylaminoethyl)-3-nitronaphthalimide] | 2 | 0.2 | 0.30 | 0.15 | 0.15 | 6.6 | great superiority over Warfarin as raticide and muricide agents | more toxic |
| O=C1c2cccc3cc([N+](=O)[O-])cc(c23)C(=O)N1CCN1CCCC1 [Compound 4, N-[2-(N-pyrrolidino)ethyl]-3-nitronaphthalimide] | 1.26 | 0.2 | 0.38 | 0.3 | 0.30 | 6.6 | great superiority over Warfarin as raticide and muricide agents | more toxic |
| O=C1c2cccc3c([N+](=O)[O-])ccc(c23)C(=O)N1CCN1CCCCC1 [N-[2-(N-piperidino)ethyl]-4-nitronaphthalimide, reference compound] | – | – | – | – | 5 | – | – | – |
| O=C1c2cccc3c([N+](=O)[O-])ccc(c23)C(=O)N1CCN1CCCC1 [N-[2-(N-pyrrolidino)ethyl]-4-nitronaphthalimide, reference compound] | – | – | – | – | 4 | – | – | – |
| CCN(CC)CCN1C(=O)c2cccc3c([N+](=O)[O-])ccc(c23)C1=O [N-[2-diethylaminoethyl]-4-nitronaphthalimide, reference compound] | – | – | – | – | 5.5 | – | – | – |
| CN(C)CCN1C(=O)c2cccc3c([N+](=O)[O-])ccc(c23)C1=O [N-[2-dimethylaminoethyl]-4-nitronaphthalimide, reference compound] | – | – | – | – | 3 | – | – | – |
| CC(=O)CC(c1ccccc1)c1c(O)c2ccccc2oc1=O (stereo not drawn) [Warfarin, 3-(α-acetonylbenzyl)-4-hydroxycoumarin, reference compound] | – | – | – | – | – | 35 | – | – |

Reference: US4146720A, “N-Aminoethyl-substituted-3-nitronaphthalimides” (priority 1977, dated 1979)
